The values that follow come from patent US8258151B2, “3-aminoimidazo [1,2-A] pyridine derivatives as SGLT inhibitors” (Merck Patent GmbH, priority 2006, dated 2012).

Some results are limits rather than exact numbers.

In one assay the target is T1, SGLT1 (Homo sapiens, UniProt P13866).
T1 construct: expressed in transfected cells
T1 sequence (P13866 1-664): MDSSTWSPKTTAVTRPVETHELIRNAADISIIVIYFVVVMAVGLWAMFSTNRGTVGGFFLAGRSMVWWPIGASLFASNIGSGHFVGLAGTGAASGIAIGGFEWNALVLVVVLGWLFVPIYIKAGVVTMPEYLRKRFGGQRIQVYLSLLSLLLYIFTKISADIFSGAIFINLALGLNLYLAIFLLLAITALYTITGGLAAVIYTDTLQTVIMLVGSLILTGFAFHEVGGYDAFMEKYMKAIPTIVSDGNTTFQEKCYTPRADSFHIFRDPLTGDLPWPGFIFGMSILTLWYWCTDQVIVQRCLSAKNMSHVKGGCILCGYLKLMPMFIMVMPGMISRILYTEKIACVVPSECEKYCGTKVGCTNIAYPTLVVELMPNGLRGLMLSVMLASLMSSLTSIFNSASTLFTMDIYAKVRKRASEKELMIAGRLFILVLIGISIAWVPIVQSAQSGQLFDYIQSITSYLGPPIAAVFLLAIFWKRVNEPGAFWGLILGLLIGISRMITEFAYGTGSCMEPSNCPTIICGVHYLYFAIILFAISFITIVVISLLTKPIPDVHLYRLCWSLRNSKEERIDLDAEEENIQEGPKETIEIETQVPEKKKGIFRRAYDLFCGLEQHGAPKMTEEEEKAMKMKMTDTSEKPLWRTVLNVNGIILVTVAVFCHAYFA
The experiment in a line: SGLT1 activity measurement: 14C-AMG uptake in BHK cells transfected with SGLT1. The following applies: AMG 50 μM, 37° C., 90 min. In kind it is cell-based. An excerpt: (§1) The compounds can be tested on their SGLT inhibition properties by means of BHK cells expressing SGLT1 and SGLT2. The production of the cells and the testing can be carried out as described below.
To construct the SGLT1 expression vector (KL225), the SLC5A1 gene (homologous to NM_000343) was amplified from a cDNA library using standard PCR technology and cloned over NheI/XhoI sites into pcDNA3.1 expression vector (Invitrogen) containing neomycin as a selection marker. In this vector, transcription uses the enhancer/promoter of human cytomegalovirus.
The final vector KL225 together with an additional vector containing a dihydrofolate reductase gene as a selection marker was introduced into cells. Transfection into BHK21 cells (ATCC CCL-10), cultivated in DMEM medium (GIBCO/BRL), supplemented with 10% foetal calf serum (FCS) and 20 mM glutamine, was carried out using calcium phosphate transfections according to Graham, F. L. and van der Ebb, A. J. (1973), Virology 52: 456 with 5-20 μg of uncut plasmids for 10^7 cells. Stable transfectants were selected in medium containing 1 mg/ml of G418 (GIBCO/BRL) and 20-5000 nM methotrexate as final concentration, where only cells which expressed the neomycin gene and overexpressed the dhfr gene were able to grow. After growth for 2-3 weeks, the cells were cloned (0.5 cells/well) and the clones were investigated for SGLT expression in the radioactive uptake assay. […]
(§2) A 96-well cell-based assay was developed and adapted to HTS requirements:
(§3) BHK cells (transfected with SGLT1 or SGLT2) were seeded into 96-well microtitre plates (Cultureplates, Perkin Elmer). After at least 24 h, medium was removed and the cell layer was washed with assay buffer (140 mM NaCl, 2 mM KCl, 1 mM CaCl2, 1 mM MgCl2, 10 mM HEPES, 5 mM Tris, adjusted with 1 M KOH to pH 7.4). After addition of 40 μl of assay buffer, 50 μl of AMG (50 μM for SGLT1 and 2 mM for SGLT2) in the presence or absence of compounds, the cells were incubated in a total volume of 100 μl at 37° C. for 90 min. Supernatant was removed by suction and discarded. The cells were washed and lysed by addition of 50 μl water. After 10 minutes at room temperature 200 μl Microscint 40 (Perkin Elmer) were added. The radioactivity was counted in a Topcount microplate scintillation counter (Perkin Elmer). The non-specific uptake was determined in sodium-free assay buffer (266 mM sucrose, 2 mM KCl, 1 mM CaCl2, 1 mM MgCl2, 10 mM HEPES, 5 mM Tris, adjusted with 1 M KOH to pH 7.4).

For the next assay, the target named is T2, SGLT2 (Homo sapiens, UniProt P31639).
T2 construct: expressed in transfected cells
T2 sequence (P31639 1-672): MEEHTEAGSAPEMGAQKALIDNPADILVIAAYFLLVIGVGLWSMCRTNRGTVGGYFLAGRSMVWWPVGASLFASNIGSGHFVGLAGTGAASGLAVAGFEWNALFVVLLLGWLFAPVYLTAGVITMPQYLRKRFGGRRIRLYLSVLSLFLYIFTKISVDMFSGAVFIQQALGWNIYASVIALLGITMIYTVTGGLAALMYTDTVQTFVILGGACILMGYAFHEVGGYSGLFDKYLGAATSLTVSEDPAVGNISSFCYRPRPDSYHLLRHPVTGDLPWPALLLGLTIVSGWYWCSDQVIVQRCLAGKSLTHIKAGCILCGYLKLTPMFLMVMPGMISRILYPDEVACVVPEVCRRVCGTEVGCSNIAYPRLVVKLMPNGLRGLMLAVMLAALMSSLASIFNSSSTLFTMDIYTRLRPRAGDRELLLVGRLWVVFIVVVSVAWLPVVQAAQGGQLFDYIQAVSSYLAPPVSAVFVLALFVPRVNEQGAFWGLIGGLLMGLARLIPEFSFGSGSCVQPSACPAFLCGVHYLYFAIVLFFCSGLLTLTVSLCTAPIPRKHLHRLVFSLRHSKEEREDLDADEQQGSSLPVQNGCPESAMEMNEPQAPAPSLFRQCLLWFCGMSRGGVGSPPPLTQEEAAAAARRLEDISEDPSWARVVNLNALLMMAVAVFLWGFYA
Briefly: SGLT2 activity measurement: 14C-AMG uptake in BHK cells transfected with SGLT2. In kind it is cell-based. The following applies: AMG 2 mM, 37° C., 90 min.
Excerpt: as §1
To construct the SGLT2 expression vector (KL224), the SLC5A2 gene (homologous to NM_003041) was amplified from a cDNA library using standard PCR technology and cloned over NheI/XhoI sites into PCI-neo expression vector (Promega) containing neomycin as a selection marker. In this vector, transcription used the enhancer/promoter of human cytomegalovirus and the SV40 polyadenylation signal.
The final vector KL224 together with an additional vector containing a dihydrofolate reductase gene as a selection marker was introduced into cells. Transfection into BHK21 cells (ATCC CCL-10), cultivated in DMEM medium (GIBCO/BRL), supplemented with 10% foetal calf serum (FCS) and 20 mM glutamine, was carried out using calcium phosphate transfections according to Graham, F. L. and van der Ebb, A. J. (1973), Virology 52: 456 with 5-20 μg of uncut plasmids for 10^7 cells. Stable transfectants were selected in medium containing 1 mg/ml of G418 (GIBCO/BRL) and 20-5000 nM methotrexate as final concentration, where only cells which expressed the neomycin gene and overexpressed the dhfr gene were able to grow. After growth for 2-3 weeks, the cells were cloned (0.5 cells/well) and the clones were investigated for SGLT expression in the radioactive uptake assay.
Principally, uptake of ^14C-α-methyl-D-glucopyranoside (AMG) in, for example, Xenopus oocytes injected with the corresponding cRNA has been described (for example Wen-Sen Lee et al. (1994), J. Biol. Chem. 269, 12032-12039; Guofeng You et al. (1995), J. Biol. Chem. 270, 29365-29371).
as §2, §3

For the molecule `CCc1cccc2nc(-c3ccccc3OCC(N)=O)c(Nc3c(C)cccc3C)n12` [Compound A13, 2-[2-(Aminocarbonylmethoxy)phenyl]-3-(2,6-dimethylphenylamino)-5-ethylimidazo[1,2-a]-pyridine], the results for the IC50 against SGLT1 and against SGLT2 were 1000 to 10000 nM and 10 to 1000 nM, respectively.

As for `COc1ccc(-c2nc3ccccn3c2Nc2c(C)cccc2C)c(OCC(N)=O)c1` [Compound A14, 2-[2-(Aminocarbonylmethoxy)-4-methoxy-phenyl]-3-(2,6-dimethylphenylamino)imidazo-[1,2-a]pyridine], the concentration for half-maximal inhibition (IC50) (as a rule, the concentration at which inhibition is half-maximal) was over 10000 nM at SGLT1 and 10 to 1000 nM on SGLT2.

For the molecule `COc1ccc(-c2nc3ccccn3c2Nc2c(C)cccc2Cl)c(OCC(N)=O)c1` [Compound A15, 2-[2-(Aminocarbonylmethoxy)-4-methoxy-phenyl]-3-(2-chloro-6-methylphenylamino)-imidazo[1,2-a]pyridine], the IC50 against SGLT1 lay within 1000 to 10000 nM; on SGLT2 it was 10 to 1000 nM.

As to `COc1ccc(-c2nc3ccccn3c2Nc2c(Cl)cccc2Cl)c(OCC(N)=O)c1` [Compound A16, 2-[2-(Aminocarbonylmethoxy)-4-methoxy-phenyl]-3-(2,6-dichlorophenylamino)imidazo-[1,2-a]pyridine], the IC50 at SGLT1 was 1000 to 10000 nM; at SGLT2, 10 to 1000 nM.

For `Cc1ccc(-c2nc3ccccn3c2Nc2c(C)cccc2C)c(OCC(N)=O)c1` [Compound A17, 2-[2-(Aminocarbonylmethoxy)-4-methylphenyl]-3-(2,6-dimethylphenylamino)-imidazo[1,2-a]-pyridine], the concentration for half-maximal inhibition (IC50) at SGLT1 is over 10000 nM; against SGLT2, 10 to 1000 nM.

Consider `CCc1cc(O)cc(OCC(N)=O)c1-c1nc2ccc(F)cn2c1Nc1c(C)cccc1C` [Compound A102, 2-[2-(Aminocarbonylmethoxy)-6-ethyl-4-hydroxy-phenyl]-3-(2,6-dimethylphenylamino)-6-fluoro-imidazo[1,2-a]pyridine], for which the IC50 is 1000 to 10000 nM on SGLT1 and 10 to 1000 nM at SGLT2.

Turning to `CCc1cc(OC2CCCCO2)cc(OCC(N)=O)c1-c1nc2ccccn2c1Nc1c(C)cccc1C` (stereo not drawn) [Compound A166, 2-[2-(Aminocarbonylmethoxy)-4-(tetra-hydropyran-2-yloxy)-6-ethylphenyl]-3-(2,6-dimethylphenylamino)imidazo[1,2-a]pyridine], the IC50 is over 10000 nM at SGLT1 and 10 to 1000 nM on SGLT2.

On to `CCc1cc(OCC(N)=O)cc(OCC(N)=O)c1-c1nc2ccccn2c1Nc1c(C)cccc1C` [Compound A167, 2-[2-(Aminocarbonylmethoxy)-4-(amino-carbonylmethoxy)-6-ethylphenyl]-3-(2,6-dimethylphenylamino)imidazo[1,2-a]pyridine], for which the IC50 is over 10000 nM against SGLT1 and 10 to 1000 nM against SGLT2.

Consider `Cc1cc(C)c(-c2nc3ccccn3c2Nc2c(C)cccc2C)c(OCC(N)=O)c1` [Compound A168, 2-[2-(Aminocarbonylmethoxy)-4,6-dimethyl-phenyl]-3-(2,6-dimethylphenylamino)imidazo-[1,2-a]pyridine], for which the half-inhibitory concentration (IC50) is over 10000 nM against SGLT1 and 10 to 1000 nM against SGLT2.

`Cc1cc(C)c(-c2nc3ccc(F)cn3c2Nc2c(C)cccc2C)c(OCC(N)=O)c1` [Compound A169, 2-[2-(Aminocarbonylmethoxy)-4,6-dimethyl-phenyl]-3-(2,6-dimethylphenylamino)-6-fluoro-imidazo[1,2-a]pyridine]: the IC50 against SGLT1 was in the range of 1000 to 10000 nM; at SGLT2, 10 to 1000 nM.

`Cc1cccc(C)c1Nc1c(-c2c(C)cc(OCC(N)=O)cc2OCC(N)=O)nc2ccccn12` [Compound A170, 2-[2-(Aminocarbonylmethoxy)-4-(amino-carbonylmethoxy)-6-methylphenyl]-3-(2,6-dimethylphenylamino)imidazo[1,2-a]pyridine]: the 50% inhibitory concentration (IC50) at SGLT1 was in the range of 1000 to 10000 nM; on SGLT2, 10 to 1000 nM.

For the molecule `Cc1cccc(C)c1Nc1c(-c2c(C)cc(O)cc2OCC(N)=O)nc2ccccn12` [Compound A171, 2-[2-(Aminocarbonylmethoxy)-4-hydroxy-6-methylphenyl]-3-(2,6-dimethylphenylamino)-imidazo[1,2-a]pyridine], the results for the IC50 at SGLT1 and against SGLT2 were over 10000 nM and 10 to 1000 nM, respectively.

With `COc1cc(C)c(-c2nc3ccccn3c2Nc2c(C)cccc2C)c(OCC(N)=O)c1` [Compound A172, 2-[2-(Aminocarbonylmethoxy)-4-methoxy-6-methylphenyl]-3-(2,6-dimethylphenylamino)-imidazo[1,2-a]pyridine], the values for the IC50 against SGLT1 and on SGLT2 were over 10000 nM and 10 to 1000 nM, respectively.

`Cc1cccc(C)c1Nc1c(-c2c(C)cc(OCc3ccccc3)cc2OCC(N)=O)nc2ccccn12` [Compound A173, 2-[2-(Aminocarbonylmethoxy)-4-benzyloxy-6-methylphenyl]-3-(2,6-dimethylphenylamino)-imidazo[1,2-a]pyridine]: the 50% inhibitory concentration (IC50) at SGLT1 and against SGLT2 was over 10000 nM throughout.

In the case of `CCc1cccc(C)c1Nc1c(-c2ccccc2OCC(N)=O)nc2ccc(F)cn12` [Compound A174, 2-[2-(Aminocarbonylmethoxy)phenyl]-3-(2-methyl-6-ethylphenylamino)-6-fluoroimidazo-[1,2-a]pyridine], the results for the concentration for half-maximal inhibition (IC50) against SGLT1 and at SGLT2 were over 10000 nM and 10 to 1000 nM, respectively.
